One data set has as its target T1, p38 MAP kinase (Homo sapiens, UniProt Q16539).
T1 construct: made in house; host or cells: E. coli (co-expressed with SEK-1 and MEKK)
Put plainly: Inhibition of p38 (MAP) Kinase-In Vitro Assay. It counts as biochemical. The settings on record: approximate p38 inhibitory activities; concentration causing 50% inhibition of the p38 enzyme; γ-33P-ATP transfer to MBP; read-out: IC50 μM (P38 MAP KINASE E-03). The method, then:
The p-38 MAP kinase inhibitory activity of compounds of this invention in vitro was determined by measuring the transfer of the y-phosphate from γ-^33P-ATP by p38 kinase to Myelin Basic Protein (MBP), using the a minor modification of the method described in Ahn et al., J. Biol. Chem., Vol. 266 (7), 4220–4227 (1991).
The phosphorylated form of the recombinant p38 MAP kinase was expressed with SEK-1 and MEKK in E. Coli (see Khokhlatchev et al., J. Biol. Chem. Vol. 272(17), pp. 11057–11062 (1997)), and then purified by affinity chromatography using a Nickel column.
The phosphorylated p38 MAP kinase was diluted in kinase buffer (20 mM 3-(N-morpholino)propanesulfonic acid, pH 7.2, 25 mM β-glycerol phosphate, 5 mM ethylene glycol-bis(beta-aminoethyl ether)-N,N,N′,N′-tetraacetic acid, 1 mM sodium vanadate, 1 mM dithiothreitol, 40 mM magnesium chloride). Test compound dissolved in DMSO or only DMSO (control) was added, and the samples were incubated for 10 min. at 30° C. The kinase reaction was initiated by the addition of a substrate cocktail containing MBP and γ-^33P-ATP. After incubating for an additional 20 min. at 30° C., the reaction was terminated by adding 0.75% phosphoric acid. The phosphorylated MBP was then separated from the residual γ-^33P-ATP using a phosphocellulose membrane (Millipore, Bedfrod, Mass.) and quantitated using a scintillation counter (Packard, Meriden, Conn.).

T1 sequence (Q16539 whole entry): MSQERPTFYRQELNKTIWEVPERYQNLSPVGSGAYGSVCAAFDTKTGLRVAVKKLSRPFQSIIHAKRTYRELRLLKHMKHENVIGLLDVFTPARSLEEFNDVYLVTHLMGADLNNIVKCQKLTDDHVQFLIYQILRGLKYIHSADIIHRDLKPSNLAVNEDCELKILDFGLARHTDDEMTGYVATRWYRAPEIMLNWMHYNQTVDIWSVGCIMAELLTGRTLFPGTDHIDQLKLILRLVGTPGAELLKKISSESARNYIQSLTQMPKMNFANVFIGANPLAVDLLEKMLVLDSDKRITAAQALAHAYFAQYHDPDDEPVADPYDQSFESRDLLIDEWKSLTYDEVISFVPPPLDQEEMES

As to `CS(=O)(=O)N1CCC(Nc2ncc3cc(Oc4ccc(F)cc4F)ncc3n2)CC1` [Example 1, [6-(2,4-Difluoro-phenoxy)-pyrido[3,4-d]pyrimidin-2-yl]-(1-methanesulfonyl-piperidin-4-yl)-amine], the melting point (as a rule, the temperature of the solid-liquid transition) fell in the range of 209.9 to 211.9 °C. Also, the IC50 – broadly, the point on the concentration scale where inhibition reaches its midpoint – on p38 MAP kinase is less than 0.05 µM. For the molecule `CC(C)Nc1ncc2cc(Oc3ccc(F)cc3F)ncc2n1` [Example 2, [6-(2,4-Difluoro-phenoxy)-pyrido[3,4-d]py-rimidin-2-yl]-iso-propyl-amine], the IC50 on p38 MAP kinase was less than 0.5 µM.

`Fc1ccc(Oc2cc3cnc(NC4CCOCC4)nc3cn2)c(F)c1` [Example 4, [6-(2,4-Difluoro-phenoxy)-pyrido[3,4-d]py-rimidin-2-yl]-(tet-rahydro-pyran-4-yl)-amine]: on p38 MAP kinase, the IC50 was less than 0.3 µM.

The record behind these values is patent US7189731B2, “Substituted 7-azaquinazoline compounds useful as p38 kinase inhibitors” (Roche Palo Alto LLC, priority 2003, dated 2007).
